In article PMC11489226 (Archives of Toxicology, 2024):

What was measured:
[1] = target: T1, CYP2C8 (Homo sapiens, UniProt P10632); assay: Metabolism in transgenic HEK293 cells expressing CYP2C8; format: in vitro ADME; conditions: 20 µM parent PCB, 24 h, supernatant
T1 construct: V5-His (vector-encoded) (C); expressed in transfected cells
T1 sequence (P10632 1-490): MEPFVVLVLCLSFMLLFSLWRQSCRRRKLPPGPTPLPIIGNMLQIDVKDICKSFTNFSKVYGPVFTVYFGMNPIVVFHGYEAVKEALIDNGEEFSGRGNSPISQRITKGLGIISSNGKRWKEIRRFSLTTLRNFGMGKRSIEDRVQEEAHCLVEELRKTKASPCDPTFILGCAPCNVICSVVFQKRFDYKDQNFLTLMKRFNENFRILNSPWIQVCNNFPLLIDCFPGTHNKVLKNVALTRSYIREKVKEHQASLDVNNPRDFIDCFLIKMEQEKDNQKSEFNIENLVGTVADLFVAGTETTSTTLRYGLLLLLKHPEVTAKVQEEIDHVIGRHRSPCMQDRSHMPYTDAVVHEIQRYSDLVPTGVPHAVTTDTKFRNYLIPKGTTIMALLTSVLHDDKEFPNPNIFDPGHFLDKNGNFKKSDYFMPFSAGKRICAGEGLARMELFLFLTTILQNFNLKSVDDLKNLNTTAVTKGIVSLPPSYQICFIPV
Procedure: (§1) For the generation of transgenic cell lines, we used semi-adherent HEK293 cells (DSMZ, ACC305, human embryonic kidney cells) which were cultured on a daily basis in DMEM medium supplemented with 10% (FCS) and 1% penicillin/streptomycin. In a first step CYP1A2, CYP2C8, CYP2C9, CYP3A4, CYP2A6, and CYP2E1 cDNA were cloned into the plasmid pcDNATM3.1/V5-His TOPO® using human liver RNA as a template and using the following primers: CYP1A2 for5′-[…]-3′, CYP1A2 rev 5′-[…]-3′; CYP2C8 for 5′-[…]-3′, CYP2C8 rev 5′-[…]-3′; CYP2C9 for 5′-[…]-3′, CYP2C9 rev 5′-[…]-3′; CYP3A4 for 5′-[…]-3′, CYP3A4 rev 5′-[…]-3′, CYP2A6 for 5′-[…]-3′, CYP2A6 rev 5′-[…]-3′; CYP2E1 for 5′-[…]-3′, CYP2E1 rev 5′-[…]-3′. Final constructs were verified with Sanger DNA sequencing and restriction digestion. For transfection, 3 × 10^6 HEK293 cells were pre-incubated in a 10 cm dish in DMEM medium with 10% FCS, but without antibiotics, for 18 to 24 h. When the cells reached approximately 70% confluency, they were transfected using TransIT-LT1 transfection reagent (Biozol, Eiching, Germany). The TransIT-LT1 reagent was warmed to room temperature and vortexed. 1.63 mL Opti-MEM, 16.25 µL plasmid DNA (1 µg/µL), and 48.75 µL TransIT-LT1 reagent were mixed and incubated for 15 to 30 min. The mixture was then added dropwise to the medium of the cells, and the cells were incubated again at 37 °C and 5% CO2. After 24 h, the medium was replaced with standard medium and geneticin was added for selection (1 mg/mL). Cells were selected for 6–8 weeks in bulk culture, and single cell clones were obtained subsequently by limiting dilution. Each clone was checked for insertion by PCR using genomic DNA as a template.
Parallel samples were run without the addition of PCBs. At a confluence of 80%, PCBs (20 μM each, dissolved in ethanol) were added and cells were incubated for 24 h before harvest of supernatants. Supernatants were diluted 1:2 with 80 μL acetate buffer 0.1 M (pH = 5.3). 100 μL of this dilution were further incubated with 100 μL of ammonium acetate buffer 0.1 M (pH = 5.3) and 5 μL of β-Glucuronidase/Arylsulfatase enzyme overnight in a drying oven at 37 °C for enzymatic hydrolysis to release conjugated compounds. 50 μL of a mix of internal standards (10 ng/mL) and 600 μL of methanol were added to the samples, then mixed by vortexing for 1 min and centrifuged for 10 min at 3400g. The individual supernatants were transferred to glass LC vials and evaporated to approximately 50 μL at 45 °C under a gentle stream of nitrogen. Finally, 0.1 mol/ L ammonium acetate buffer was added to a final volume of 100 μL and then transferred to an insert for analysis. […]

[2] = target: CYP3A4 (Homo sapiens, UniProt P08684); assay: Metabolism in transgenic HEK293 cells expressing CYP3A4; conditions: 20 µM parent PCB, 24 h, supernatant
Sequence of CYP3A4 (P08684 whole entry): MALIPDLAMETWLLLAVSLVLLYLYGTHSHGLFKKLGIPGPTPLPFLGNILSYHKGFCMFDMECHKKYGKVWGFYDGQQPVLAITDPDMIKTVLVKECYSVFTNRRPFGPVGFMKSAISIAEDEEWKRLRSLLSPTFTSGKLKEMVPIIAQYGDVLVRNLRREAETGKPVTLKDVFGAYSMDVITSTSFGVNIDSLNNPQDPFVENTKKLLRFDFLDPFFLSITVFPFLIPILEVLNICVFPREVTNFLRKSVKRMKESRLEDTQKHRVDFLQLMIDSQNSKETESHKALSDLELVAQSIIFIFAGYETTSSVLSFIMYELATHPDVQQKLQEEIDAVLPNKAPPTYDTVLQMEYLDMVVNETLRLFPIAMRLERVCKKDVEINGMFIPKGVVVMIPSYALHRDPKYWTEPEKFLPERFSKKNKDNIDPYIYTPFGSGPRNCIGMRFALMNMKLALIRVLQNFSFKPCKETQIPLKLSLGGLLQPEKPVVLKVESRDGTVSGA
Procedure: as §1
Parallel samples were run without the addition of PCBs. At a confluence of 80%, PCBs (20 μM each, dissolved in ethanol) were added and cells were incubated for 24 h before harvest of supernatants. Supernatants were diluted 1:2 with 80 μL acetate buffer 0.1 M (pH = 5.3). 100 μL of this dilution were further incubated with 100 μL of ammonium acetate buffer 0.1 M (pH = 5.3) and 5 μL of β-Glucuronidase/Arylsulfatase enzyme overnight in a drying oven at 37 °C for enzymatic hydrolysis to release conjugated compounds. 50 μL of a mix of internal standards (10 ng/mL) and 600 μL of methanol were added to the samples, then mixed by vortexing for 1 min and centrifuged for 10 min at 3400g. The individual supernatants were transferred to glass LC vials and evaporated to approximately 50 μL at 45 °C under a gentle stream of nitrogen. Finally, 0.1 mol/ L ammonium acetate buffer was added to a final volume of 100 μL and then transferred to an insert for analysis.
HEK293 cells overexpressing the respective CYP enzymes were seeded onto 6-well plates and were treated with or without 10 µM of the respective probe drug in DMEM medium for 24 hours at 37 °C and 5 % CO2. After incubation 200 µL DMEM were collected, cells were washed with PBS and adherent cells were lysed in 500 µL methanol for 20 minutes. Analytes were measured by LC-MS/MS either in methanol cell lysates or in DMEM supernatant.
50 µL of DMEM samples were protein precipitated by adding 200 µL of methanol and were centrifuged for 20 min, 17,000 g and 4°C. Supernatants were diluted in water or 40 % methanol according to dilution factor. Methanol cell lysates were diluted ½ with water and centrifuged for 20 min, 17,000 g and 4°C. 5 µL of the processed samples were injected for LC-MS analysis.

Measured: Quantification of metabolites generated from PCB28, 52, and 101

Oc1cc(Cl)c(-c2ccc(Cl)cc2)cc1Cl [4-OHCB31, 2,4′,5-trichloro-4-biphenylol]
<LOQ: [1]; CYP2C8 Clone A3 | [1]; CYP2C8 Clone D8 | [1]; CYP2C8 Clone D9 | [2]; CYP3A4 Clone B4 | [2]; CYP3A4 Clone D10 | [2]; CYP3A4 Clone E6

Oc1cc(-c2ccc(Cl)cc2)c(Cl)cc1Cl [5-OHCB28, 2,4,4′-trichloro-5-biphenylol]
<LOQ: [1]; CYP2C8 Clone A3 | [1]; CYP2C8 Clone D8 | [1]; CYP2C8 Clone D9 | [2]; CYP3A4 Clone B4 | [2]; CYP3A4 Clone D10 | [2]; CYP3A4 Clone E6
